# Assays:
# [1] = test system: soybean half-seed explants; assay: Shoot induction on half-seed explants with BAP added to shoot induction medium; conditions: BAP 15-100 μM in shoot induction medium, compared to no treatment or 2.5-7.5 μM
# Procedure: (§1) After co-cultivation, the half-seed explants were washed in liquid shoot induction (SI) medium (see Table III). The explants were cultured on shoot induction medium solidified with 0.7% agar in the absence of selection. The base of the explant (i.e., the part of the explant from where the embryonic axis was removed) was embedded in the medium, facing upwards. […] Shoot induction was carried out in a Percival Biological Incubator at 24° C. with an 18-hr photoperiod at 140 μmoles sec^−1m^−2 light intensity. After 14 days, the explants were transferred to fresh shoot induction medium containing 6 mg/l glufosinate. After four weeks of culture on shoot induction medium, explants were transferred to shoot elongation (SE) medium containing 6 mg/l glufosinate (see Table IV). Two to four weeks later, elongated shoots (>2.5 cm) were dipped in sterile IBA (1 mg/l) and then transferred to rooting medium (see Table V) without glufosinate. After two weeks, agar medium was rinsed off of the rooted plantlets with water, and the rooted plantlets were transplanted to soil (Redi-Earth, Peat-Lite Mix, Scotts-Sierra Horticultural Products Company, Marysville, Ohio) in jiffy pots. The plant (R0) was grown at 24° C. with an 18-hr photoperiod for one-two weeks and then transferred to the greenhouse.
# [2] = test system: Thorne soybean half-seed explants; assay: Agrobacterium-mediated transformation and regeneration of half-seed explants from seeds soaked in BAP; conditions: for Initial Transformation Efficiency (ITE; %): ITE = no. of Liberty-resistant R0 events/no. of explants infected
# Procedure: Mature Thorne soybean seeds were surface-sterilized for 16 hrs using chlorine gas, which was produced by mixing 3.5 ml of 12 N HCl with 100 ml of commercial bleach (5.25% sodium hypochloride) (Di et al., Plant Cell Rep. 15: 746-750 (1996)). […] The seeds were then split by cutting longitudinally along the hilums to separate the cotyledons, and the seed coats, primary shoots, and embryonic axes were removed, thereby generating half-seed explants. The half-seed explants were co-cultivated with A. tumefaciens for five days in the light. […]
# About 50-100 half-seed explants were inoculated with 30 ml of Agrobacterium suspension culture in a 20×100 mm Petri dish at RT for 30 min. After inoculation, half-seed explants were transferred to co-cultivation medium lined with filter paper (6 explants per plate; flat side of explant in contact with filter paper) (see Table II). Co-cultivation was carried out for five days at 24° C. with 18 hr photoperiod at 140 μmoles sec^−1m^−2 light intensity.
# as §1
# R0 plants with two trifoliates were screened using the herbicide paint assay to identify putative transformants that expressed the bar gene. The upper surface of a leaf was painted with 150 mg/l glufosinate (herbicide Liberty®, AgrEvo, U.S.A.) along the midrib using a cotton bud. Plants were scored based on the tolerance of the leaf tissue to glufosinate at three-five days after painting. Glufosinate-resistant R0 plants were grown in the greenhouse until maturity and seeds were harvested. Subsequently, seeds from R0 plants were sown and progeny-tested to confirm the presence of the transgene in the R1 generation by spraying two-week-old seedlings with 200 mg/l glufosinate. Plants were scored one week after spraying. Thirty-two transgenic events were confirmed in the R1 progeny by spraying with 200 mg/l glufosinate using herbicide Liberty. […] Plants were fertile and produced seed.
# After five days of co-cultivation, half-seed explants infected with pTF102 were assayed for transient GUS blue expression to verify T-DNA transfer. The explants were incubated overnight in 5-bromo-4-chloro-3-indolyl glucuronide (X-gluc) solution at 37° C. (Jefferson et al., EMBO J 6: 3901-3907 (1987)). After staining, the explants were de-stained with 70% ethanol to improve contrast. The incidence of GUS activity was determined based on the presence of blue-staining areas. In addition, stable GUS expression was determined after 28 days on regeneration medium or on R0 plants. The transgenic nature of the soybean plants was also confirmed in the R0 or R1 generation by histochemical GUS assay.
compound,measurement,setting,value
"c1ccc(CNc2ncnc3nc[nH]c23)cc1 [BAP, 6-benzylaminopurine]",shoot formation (regeneration frequency),[1],enhanced shoot formation
same,Freq. GUS blue (on the section of explant where shoots were induced),[2]; seeds soaked in 7.5 μM BAP,(10%)
same,"Freq. GUS blue (on the section of explant where shoots were induced), count",[2]; seeds soaked in 7.5 μM BAP,1/10
same,No. of Liberty-resistant R0 plants,[2]; seeds soaked in 7.5 μM BAP,0
same,Reg. Freq. (%) (regeneration frequency at first shoot induction stage),[2]; seeds soaked in 7.5 μM BAP,(8) %
same,"Reg. Freq. (regeneration frequency at first shoot induction stage), explants count",[2]; seeds soaked in 7.5 μM BAP,4/50
same,Initial Transformation Efficiency (ITE; %),[2]; seeds soaked in 7.5 μM BAP,0.0%
same,Freq. GUS blue (on the section of explant where shoots were induced),[2]; seeds soaked in 15 μM BAP,(20%)
same,"Freq. GUS blue (on the section of explant where shoots were induced), count",[2]; seeds soaked in 15 μM BAP,2/10
same,No. of Liberty-resistant R0 plants,[2]; seeds soaked in 15 μM BAP,3
same,Reg. Freq. (%) (regeneration frequency at first shoot induction stage),[2]; seeds soaked in 15 μM BAP,(48) %
same,"Reg. Freq. (regeneration frequency at first shoot induction stage), explants count",[2]; seeds soaked in 15 μM BAP,24/50
same,Initial Transformation Efficiency (ITE; %),[2]; seeds soaked in 15 μM BAP,6.0%
same,Freq. GUS blue (on the section of explant where shoots were induced),[2]; seeds soaked in 30 μM BAP,(90%)
same,"Freq. GUS blue (on the section of explant where shoots were induced), count",[2]; seeds soaked in 30 μM BAP,9/10
same,No. of Liberty-resistant R0 plants,[2]; seeds soaked in 30 μM BAP,2
same,Reg. Freq. (%) (regeneration frequency at first shoot induction stage),[2]; seeds soaked in 30 μM BAP,(58) %
same,"Reg. Freq. (regeneration frequency at first shoot induction stage), explants count",[2]; seeds soaked in 30 μM BAP,29/50
same,Initial Transformation Efficiency (ITE; %),[2]; seeds soaked in 30 μM BAP,4.0%
same,Freq. GUS blue (on the section of explant where shoots were induced),[2]; seeds soaked in 50 μM BAP,(67%)
same,"Freq. GUS blue (on the section of explant where shoots were induced), count",[2]; seeds soaked in 50 μM BAP,6/9
same,No. of Liberty-resistant R0 plants,[2]; seeds soaked in 50 μM BAP,0
same,Reg. Freq. (%) (regeneration frequency at first shoot induction stage),[2]; seeds soaked in 50 μM BAP,(46) %
same,"Reg. Freq. (regeneration frequency at first shoot induction stage), explants count",[2]; seeds soaked in 50 μM BAP,23/50
same,Initial Transformation Efficiency (ITE; %),[2]; seeds soaked in 50 μM BAP,0.0%
